The source made the active and inactive calls.
Assays:
[1] = target: Muscarinic acetylcholine receptor M1 (Homo sapiens) (UniProt P11229); conditions: Compound concentration 10.0 uM
[2] = target: Beta-3 adrenergic receptor (Homo sapiens, UniProt P13945); conditions: Compound concentration 10.0 uM
[3] = target: Alpha-2C adrenergic receptor (Homo sapiens, UniProt P18825); test: GPCRScan assay: inhibition of Alpha2C; parameters: radioligand conc. used [nm] 0.5 – 1.0, parental cells stable MDCK
[4] = target: 5-hydroxytryptamine receptor 2A (Homo sapiens, UniProt P28223); test: GPCRScan assay: inhibition of 5-HT2A; parameters: radioligand conc. used [nm] 1.2 – 2.4, parental cells HEKT
[5] = target: Alpha-1A adrenergic receptor (Homo sapiens, UniProt P35348); test: GPCRScan assay: inhibition of Alpha1A; parameters: radioligand conc. used [nm] 0.2 - 1.0, parental cells stable HEK
[6] = target: Receptor-type tyrosine-protein kinase FLT3 (Homo sapiens, UniProt P36888); test: NanoBRET (SGC Frankfurt) (FLT3)
[7] = target: Sigma intracellular receptor 2 (Homo sapiens, UniProt Q5BJF2); test: GPCRScan assay: inhibition of Sigma 2; parameters: radioligand conc. used [nm] 5.0, parental cells HEKT
[8] = target: Sigma non-opioid intracellular receptor 1 (Homo sapiens, UniProt Q99720); test: GPCRScan assay: inhibition of Sigma 1; parameters: radioligand conc. used [nm] 4.0 – 5.0, parental cells HEKT
Chain of Sigma non-opioid intracellular receptor 1 (Q99720 whole entry): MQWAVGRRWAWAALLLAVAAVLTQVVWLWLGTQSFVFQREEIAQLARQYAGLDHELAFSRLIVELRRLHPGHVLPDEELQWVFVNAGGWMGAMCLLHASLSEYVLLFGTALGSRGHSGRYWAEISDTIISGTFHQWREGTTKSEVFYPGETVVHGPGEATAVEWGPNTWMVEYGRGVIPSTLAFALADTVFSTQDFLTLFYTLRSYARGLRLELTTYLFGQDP

[9] = target: Dual specificity protein kinase CLK4 (Homo sapiens, UniProt Q9HAZ1); test: NanoBRET (SGC Frankfurt) (CLK4)
[10] = target: Histamine H3 receptor (Homo sapiens) (UniProt Q9Y5N1); conditions: Compound concentration 10.0 uM
Chain of Histamine H3 receptor (Homo sapiens) (Q9Y5N1 whole entry): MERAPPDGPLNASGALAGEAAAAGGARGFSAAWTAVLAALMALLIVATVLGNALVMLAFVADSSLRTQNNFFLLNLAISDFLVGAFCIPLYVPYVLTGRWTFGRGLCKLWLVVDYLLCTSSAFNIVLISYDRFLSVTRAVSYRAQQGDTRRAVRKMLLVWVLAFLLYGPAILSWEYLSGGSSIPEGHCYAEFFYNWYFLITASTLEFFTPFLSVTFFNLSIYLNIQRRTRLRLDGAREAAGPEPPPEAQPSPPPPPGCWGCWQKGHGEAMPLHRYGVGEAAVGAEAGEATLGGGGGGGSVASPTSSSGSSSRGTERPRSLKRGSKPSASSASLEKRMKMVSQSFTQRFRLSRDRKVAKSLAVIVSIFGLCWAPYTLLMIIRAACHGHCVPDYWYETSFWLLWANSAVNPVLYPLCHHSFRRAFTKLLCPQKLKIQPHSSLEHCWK

[11] = target: Alpha-2A adrenergic receptor (Homo sapiens, UniProt P08913); test: GPCRScan assay: inhibition of Alpha2A; parameters: radioligand conc. used [nm] 1.0 – 3.0, parental cells stable MDCK
Mu-type opioid receptor = Mu-type opioid receptor (Homo sapiens, UniProt P35372); test: GPCRScan assay: inhibition of MOR; parameters: radioligand conc. used [nm] 1.0 – 2.0, parental cells stable HEK
[12] = target: 5-hydroxytryptamine receptor 1D (Homo sapiens, UniProt P28221); test: GPCRScan assay: inhibition of 5-HT1D; parameters: radioligand conc. used [nm] 1.0 – 2.0, parental cells HEKT
[13] = target: Cyclin-dependent kinase 1/cyclin B (Homo sapiens) (UniProt P06493+P14635+Q8WWL7+O95067); test: CDK1/cyclin B Kinase activity screen; format: protein-complex assay
[14] = target: Serine/threonine-protein kinase Chk2 (Homo sapiens) (UniProt O96017); test: CHEK2 (CHK2) Kinase activity screen
Chain of Serine/threonine-protein kinase Chk2 (Homo sapiens) (O96017 whole entry): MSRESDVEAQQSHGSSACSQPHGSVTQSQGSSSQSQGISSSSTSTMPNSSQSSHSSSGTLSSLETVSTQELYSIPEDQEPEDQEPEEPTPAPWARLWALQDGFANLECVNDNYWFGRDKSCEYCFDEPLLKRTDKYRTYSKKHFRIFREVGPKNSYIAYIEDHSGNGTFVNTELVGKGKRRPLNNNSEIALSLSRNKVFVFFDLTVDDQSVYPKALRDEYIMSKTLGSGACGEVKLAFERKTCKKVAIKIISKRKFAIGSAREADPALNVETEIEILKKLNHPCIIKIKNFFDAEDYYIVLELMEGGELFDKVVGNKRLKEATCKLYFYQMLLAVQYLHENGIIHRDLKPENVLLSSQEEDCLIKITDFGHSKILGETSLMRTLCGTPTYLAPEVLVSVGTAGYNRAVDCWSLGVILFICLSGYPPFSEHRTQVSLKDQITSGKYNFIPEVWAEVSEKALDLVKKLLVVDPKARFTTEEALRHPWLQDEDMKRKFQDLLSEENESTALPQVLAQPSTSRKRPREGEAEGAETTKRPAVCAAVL

[15] = target: Tyrosine-protein kinase ABL1 (Homo sapiens) (UniProt P00519); test: ABL1 Kinase activity screen
[16] = target: Casein kinase I isoform alpha (Homo sapiens) (UniProt P48729); test: CSNK1A1 (CK1 alpha 1) Kinase activity screen
[17] = target: Ephrin type-A receptor 5 (Homo sapiens) (UniProt P54756); test: EPHA5 Kinase activity screen
[18] = target: Serine/threonine-protein kinase Chk1 (Homo sapiens) (UniProt O14757); test: CHEK1 (CHK1) Kinase activity screen
[19] = target: AMP-activated protein kinase (AMPK) alpha-1/beta-1/gamma-1 (Homo sapiens) (UniProt P54619+Q9Y478+Q13131); test: AMPK A1/B1/G1 Kinase activity screen; format: protein-complex assay
[20] = target: Tyrosine-protein kinase JAK1 (Homo sapiens) (UniProt P23458); test: JAK1 Kinase activity screen; conditions: Compound concentration 0.1 uM
[21] = target: Ribosomal protein S6 kinase beta-1 (Homo sapiens) (UniProt P23443); test: RPS6KB1 (p70S6K) Kinase activity screen
[22] = target: Serine/threonine-protein kinase mTOR (Homo sapiens) (UniProt P42345); test: FRAP1 (mTOR) Kinase activity screen
[23] = target: PI3-kinase p110-alpha/p85-alpha (Homo sapiens) (UniProt P27986+P42336); test: PIK3CA/PIK3R1 (p110 alpha/p85 alpha) Kinase activity screen; format: protein-complex assay
[24] = target: Mitogen-activated protein kinase 1 (Homo sapiens) (UniProt P28482); test: MAPK1 (ERK2) Kinase activity screen
[25] = target: Fibroblast growth factor receptor 1 (Homo sapiens) (UniProt P11362); test: FGFR1 Kinase activity screen
Chain of Fibroblast growth factor receptor 1 (Homo sapiens) (P11362 22-822 limits assumed): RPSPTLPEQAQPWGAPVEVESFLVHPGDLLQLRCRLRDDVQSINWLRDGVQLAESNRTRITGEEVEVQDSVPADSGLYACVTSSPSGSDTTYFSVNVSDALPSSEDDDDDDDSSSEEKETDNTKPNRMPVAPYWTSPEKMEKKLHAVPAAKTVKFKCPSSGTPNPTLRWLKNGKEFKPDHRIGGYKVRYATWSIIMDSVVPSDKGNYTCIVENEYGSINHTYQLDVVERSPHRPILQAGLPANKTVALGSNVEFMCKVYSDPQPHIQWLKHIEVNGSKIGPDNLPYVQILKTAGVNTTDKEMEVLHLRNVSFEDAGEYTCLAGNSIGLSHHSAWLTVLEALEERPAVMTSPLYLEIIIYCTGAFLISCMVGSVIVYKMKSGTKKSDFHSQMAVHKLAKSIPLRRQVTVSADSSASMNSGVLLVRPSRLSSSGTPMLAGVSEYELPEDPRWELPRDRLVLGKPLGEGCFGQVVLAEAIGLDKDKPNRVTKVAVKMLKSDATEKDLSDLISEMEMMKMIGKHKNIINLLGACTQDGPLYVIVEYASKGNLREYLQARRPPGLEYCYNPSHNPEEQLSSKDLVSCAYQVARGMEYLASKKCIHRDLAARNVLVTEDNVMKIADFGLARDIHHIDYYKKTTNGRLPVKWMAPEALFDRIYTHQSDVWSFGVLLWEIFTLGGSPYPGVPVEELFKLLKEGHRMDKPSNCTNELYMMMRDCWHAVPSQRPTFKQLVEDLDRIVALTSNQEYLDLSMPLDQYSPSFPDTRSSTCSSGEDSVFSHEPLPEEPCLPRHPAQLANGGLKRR

[26] = target: Dual specificity mitogen-activated protein kinase kinase 1 (Homo sapiens) (UniProt Q02750); test: MAP2K1 (MEK1) Kinase activity screen
[27] = target: Protein kinase C theta type (Homo sapiens) (UniProt Q04759); test: PRKCQ (PKC theta) Kinase activity screen
[28] = target: Focal adhesion kinase 1 (Homo sapiens) (UniProt Q05397); test: PTK2 (FAK) Kinase activity screen
[29] = target: Protein kinase C alpha type (Homo sapiens) (UniProt P17252); test: PRKCA (PKC alpha) Kinase activity screen
[30] = target: Cyclin-dependent kinase 5/CDK5 activator 1 (Homo sapiens) (UniProt Q00535+Q15078); test: CDK5/p35 Kinase activity screen; format: protein-complex assay
Chain of Cyclin-dependent kinase 5/CDK5 activator 1 (Homo sapiens) (Q00535 whole entry): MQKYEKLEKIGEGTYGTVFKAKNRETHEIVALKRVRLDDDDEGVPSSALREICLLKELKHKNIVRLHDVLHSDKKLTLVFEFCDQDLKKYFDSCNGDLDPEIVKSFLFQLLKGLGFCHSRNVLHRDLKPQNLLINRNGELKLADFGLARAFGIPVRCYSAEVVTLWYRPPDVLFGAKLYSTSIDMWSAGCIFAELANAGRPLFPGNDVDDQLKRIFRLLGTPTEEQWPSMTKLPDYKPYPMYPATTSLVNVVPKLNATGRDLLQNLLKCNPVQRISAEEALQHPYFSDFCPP
Chain of Cyclin-dependent kinase 5/CDK5 activator 1 (Homo sapiens) (Q15078 99-307 partner limits assumed): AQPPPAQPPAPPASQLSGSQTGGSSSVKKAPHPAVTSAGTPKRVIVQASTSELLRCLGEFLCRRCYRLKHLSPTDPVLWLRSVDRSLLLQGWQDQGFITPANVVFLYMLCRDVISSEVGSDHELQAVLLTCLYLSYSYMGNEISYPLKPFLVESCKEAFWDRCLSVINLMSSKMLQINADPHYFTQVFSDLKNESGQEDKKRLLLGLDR

[31] = target: Mitogen-activated protein kinase 14 (Homo sapiens) (UniProt Q16539); test: MAPK14 (p38 alpha) Kinase activity screen
Chain of Mitogen-activated protein kinase 14 (Homo sapiens) (Q16539 whole entry): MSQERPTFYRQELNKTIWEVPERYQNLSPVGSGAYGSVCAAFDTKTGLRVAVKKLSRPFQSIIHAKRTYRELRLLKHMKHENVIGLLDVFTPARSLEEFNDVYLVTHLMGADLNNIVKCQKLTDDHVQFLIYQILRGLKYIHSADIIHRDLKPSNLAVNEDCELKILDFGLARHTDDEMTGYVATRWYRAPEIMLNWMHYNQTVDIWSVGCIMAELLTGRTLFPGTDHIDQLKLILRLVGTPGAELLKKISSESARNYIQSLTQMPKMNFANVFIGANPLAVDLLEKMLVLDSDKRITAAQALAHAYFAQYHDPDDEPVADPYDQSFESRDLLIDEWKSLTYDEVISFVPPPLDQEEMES

[32] = target: Mitogen-activated protein kinase 11 (Homo sapiens) (UniProt Q15759); test: MAPK11 (p38 beta) Kinase activity screen
Chain of Mitogen-activated protein kinase 11 (Homo sapiens) (Q15759 whole entry): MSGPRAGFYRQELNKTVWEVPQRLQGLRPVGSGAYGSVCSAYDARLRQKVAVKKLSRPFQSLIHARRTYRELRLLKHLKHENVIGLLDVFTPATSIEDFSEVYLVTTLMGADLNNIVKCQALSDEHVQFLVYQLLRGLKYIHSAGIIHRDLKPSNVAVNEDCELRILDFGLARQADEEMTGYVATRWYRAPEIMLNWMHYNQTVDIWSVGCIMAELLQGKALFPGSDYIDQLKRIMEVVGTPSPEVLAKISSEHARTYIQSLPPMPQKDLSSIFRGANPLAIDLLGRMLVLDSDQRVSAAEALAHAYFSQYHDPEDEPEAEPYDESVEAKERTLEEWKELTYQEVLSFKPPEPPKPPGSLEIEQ

[33] = target: Serine/threonine-protein kinase pim-1 (Homo sapiens) (UniProt P11309); test: PIM1 Kinase activity screen
[34] = target: CDK2/Cyclin A2 (Homo sapiens) (UniProt P24941+P20248); test: CDK2/cyclin A Kinase activity screen; format: protein-complex assay
[35] = target: Ephrin type-B receptor 1 (Homo sapiens) (UniProt P54762); test: EPHB1 Kinase activity screen
Chain of Ephrin type-B receptor 1 (Homo sapiens) (P54762 whole entry): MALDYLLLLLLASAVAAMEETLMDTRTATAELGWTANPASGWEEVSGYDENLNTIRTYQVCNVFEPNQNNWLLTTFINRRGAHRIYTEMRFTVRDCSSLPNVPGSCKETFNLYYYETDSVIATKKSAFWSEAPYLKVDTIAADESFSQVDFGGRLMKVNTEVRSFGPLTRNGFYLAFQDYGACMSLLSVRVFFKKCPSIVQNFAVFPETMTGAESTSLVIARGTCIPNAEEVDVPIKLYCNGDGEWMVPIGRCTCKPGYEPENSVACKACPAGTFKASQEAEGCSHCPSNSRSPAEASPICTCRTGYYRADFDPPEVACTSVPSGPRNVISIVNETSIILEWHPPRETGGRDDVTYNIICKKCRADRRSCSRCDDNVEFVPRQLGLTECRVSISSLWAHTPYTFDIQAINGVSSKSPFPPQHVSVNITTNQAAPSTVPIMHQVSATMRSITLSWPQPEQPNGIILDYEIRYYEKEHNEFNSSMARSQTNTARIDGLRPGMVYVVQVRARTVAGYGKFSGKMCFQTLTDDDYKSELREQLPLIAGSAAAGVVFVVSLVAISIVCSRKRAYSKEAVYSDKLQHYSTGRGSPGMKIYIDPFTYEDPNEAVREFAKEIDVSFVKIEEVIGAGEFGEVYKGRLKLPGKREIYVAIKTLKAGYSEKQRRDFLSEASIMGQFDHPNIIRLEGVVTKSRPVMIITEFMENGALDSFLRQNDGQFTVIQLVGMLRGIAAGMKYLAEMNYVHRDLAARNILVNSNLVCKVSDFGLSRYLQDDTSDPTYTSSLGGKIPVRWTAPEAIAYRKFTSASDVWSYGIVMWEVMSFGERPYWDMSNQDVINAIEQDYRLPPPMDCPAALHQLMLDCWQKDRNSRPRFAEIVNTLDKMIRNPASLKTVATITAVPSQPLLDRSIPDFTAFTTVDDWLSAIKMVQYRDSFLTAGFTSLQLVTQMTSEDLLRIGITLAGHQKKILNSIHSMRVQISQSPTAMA

[36] = target: Aurora kinase B (Homo sapiens) (UniProt Q96GD4); test: AURKB (Aurora B) Kinase activity screen
[37] = target: MAP kinase-activated protein kinase 2 (Homo sapiens) (UniProt P49137); test: MAPKAPK2 Kinase activity screen
[38] = target: Dual specificity tyrosine-phosphorylation-regulated kinase 1A (Homo sapiens, UniProt Q13627); test: DYRK1A Kinase activity screen
[39] = target: Mitogen-activated protein kinase 3 (Homo sapiens) (UniProt P27361); test: MAPK3 (ERK1) Kinase activity screen

CN1CCN(C(=O)C(C)(C)c2ccc(C(=O)Nc3cn4cc(-c5cc(C(C)(C)C)cc(C(C)(C)C)c5)ccc4n3)cc2)CC1 [T3-CLK-N]
1390 nM: Ki ([5]; read-out: Ki)
2820 nM: Ki ([12]; read-out: pKi (converted))
4020 nM: Ki (Mu-type opioid receptor)
741 nM: Ki ([8]; read-out: pKi (converted))
2660 nM: Ki [11]
1320 nM: Ki ([4]; read-out: pKi (converted))
inactive: inhibition [10] 43.8%
798 nM: Ki ([8]; read-out: Ki)
3070 nM: Ki ([12]; read-out: Ki)
< 5: pKi [3]
> 10000 nM (not active): IC50 [6] | IC50 [9]
active: inhibition [1] 68.3% | inhibition [2] 78.1%
1530 nM: Ki ([4]; read-out: Ki)
> 10000 nM: Ki [3]
412 nM: Ki [7]
1350 nM: Ki ([5]; read-out: pKi (converted))

CN1CCN(C(=O)C(C)(C)c2ccc(C(=O)Nc3cn4cc(-c5ccncc5)ccc4n3)cc2)CC1 [T3-CLK]
active: inhibition ([15]; Compound concentration 1.0 uM) 55.7% | IC50 [9] 1.98 nM | inhibition ([38]; Compound concentration 0.123 uM) 74.2% | inhibition ([38]; Compound concentration 1.11 uM) 97.5%
inactive: inhibition ([13]; Compound concentration 0.1 uM) 7.95% | inhibition ([13]; Compound concentration 1.0 uM) 7.1% | inhibition ([14]; Compound concentration 0.1 uM) 21.9% | inhibition ([14]; Compound concentration 1.0 uM) 24.2% | inhibition ([15]; Compound concentration 0.1 uM) 10.1% | inhibition ([16]; Compound concentration 0.1 uM) -3.75% | inhibition ([16]; Compound concentration 1.0 uM) -2.73% | inhibition ([17]; Compound concentration 0.1 uM) -5.79% | inhibition ([17]; Compound concentration 1.0 uM) -4.96% | inhibition ([18]; Compound concentration 0.1 uM) 9.74% | inhibition ([18]; Compound concentration 1.0 uM) 18.4% | inhibition ([19]; Compound concentration 0.1 uM) -2% | inhibition ([19]; Compound concentration 1.0 uM) 0.493% | inhibition [20] 10.9% | inhibition ([21]; Compound concentration 0.1 uM) 2.21% | inhibition ([21]; Compound concentration 1.0 uM) 0.698% | inhibition ([22]; Compound concentration 0.1 uM) -5.58% | inhibition ([22]; Compound concentration 1.0 uM) -8.53% | inhibition ([23]; Compound concentration 0.1 uM) 3.58% | inhibition ([23]; Compound concentration 1.0 uM) 3.6% | inhibition ([24]; Compound concentration 0.1 uM) 2.74% | inhibition ([24]; Compound concentration 1.0 uM) 4.01% | inhibition [10] 16.6% | inhibition ([25]; Compound concentration 0.1 uM) 4.26% | inhibition ([25]; Compound concentration 1.0 uM) 9.19% | inhibition ([26]; Compound concentration 0.1 uM) 12.4% | inhibition ([26]; Compound concentration 1.0 uM) 10.9% | inhibition ([27]; Compound concentration 0.1 uM) 5.46% | inhibition ([27]; Compound concentration 1.0 uM) 4.24% | inhibition ([28]; Compound concentration 0.1 uM) -9.12% | inhibition ([28]; Compound concentration 1.0 uM) -7.35% | inhibition ([29]; Compound concentration 0.1 uM) 4.38% | inhibition ([29]; Compound concentration 1.0 uM) 3.75% | inhibition ([30]; Compound concentration 0.1 uM) 1.85% | inhibition ([30]; Compound concentration 1.0 uM) -1.12% | inhibition ([31]; Compound concentration 0.1 uM) 4.88% | inhibition ([31]; Compound concentration 1.0 uM) 6.39% | inhibition ([32]; Compound concentration 0.1 uM) 0.672% | inhibition ([32]; Compound concentration 1.0 uM) 0.93% | inhibition ([33]; Compound concentration 0.1 uM) 15.6% | inhibition ([33]; Compound concentration 1.0 uM) 11.3% | inhibition ([34]; Compound concentration 0.1 uM) 0.334% | inhibition ([34]; Compound concentration 1.0 uM) 3.32% | inhibition ([35]; Compound concentration 0.1 uM) 4.83% | inhibition ([35]; Compound concentration 1.0 uM) 4.09% | inhibition ([36]; Compound concentration 0.1 uM) 6.77% | inhibition ([36]; Compound concentration 1.0 uM) 16.1% | inhibition ([37]; Compound concentration 0.1 uM) 3.68% | inhibition ([37]; Compound concentration 1.0 uM) 2.12% | inhibition ([39]; Compound concentration 0.1 uM) 5.63% | inhibition ([39]; Compound concentration 1.0 uM) 6.05%
668 nM (not active): IC50 [6]

Reference: ChEMBL document CHEMBL4507307 (2021)
